The source of these data is patent US6683110B1, “Methyl esters of substituted 4-oxo-2-butenoic acid for treatment of tuberculosis” (University of Central Florida, priority 2001, dated 2004).

In data set [1] the test system is M. tuberculosis (ATCC 25177). As to the kind of experiment: BACTEC 460 TB radiometric growth inhibition bioassay (bacteriostatic activity). It is filed as cell-based, Mycobacterium tuberculosis. The settings on record: final concentration of 0.1 mg/ml in Bactec 7H12 B+ medium; percent inhibition from growth index.
Data set [2] in a line: in vivo. The following applies: both sexes, mouse, ip, white mice, intraperitoneal injection of 2% solution in starch, 14 day observation. The protocol: Animal Toxicity Bioassay. Acute toxicity was studied on white mice of both sexes with weight ranging between 18-26 grams under intraperitoneal injection of 2% solution of tested compound in starch (the compound was dissolved in starch slime and injected) on the basis of 0.1 ml of solution per 10 g of the animal weight. Each dose was tested on the group of 6 animals that were observed during 14 day period. (This method was approved by the Pharmacology committee of Russian Ministry of Health and has been widely used since 1968.) Averaged lethal dose (LD50) of the compound was computed using results of experiments on 5-7 groups of animals using the method of Litchfield and Wilkinson. (Belenkii M. L. “Elements of quantative determination of the pharmacological effect,” Leningrad, 1963, 71 pages).
The acute toxicity of isoniazid is as following: LCLo (lowest published lethal concentration) for man is 100 mg/kg. […] All toxicity information about isoniazid can also be found on the web site: http://ntp-server.niehs.nih.gov/htdocs/Chem H&S/NTP Chem5/Radian54-85-3.html

A short description of data set [3]: Stability in solution. The settings on record: decomposes quickly when the solution is heated or stored for a long time, with formation of OF-12. It is filed as physicochemical.
Data set [4] concerns man. The settings on record: cited from earlier work.

In general, LD50 refers to the dose expected to kill half of the subjects tested. Low readings indicate greater toxicity, high ones lower toxicity. For `CCOc1ccc(C(=O)C=C(NN=C2c3ccccc3-c3ccccc32)C(=O)OC)cc1` [OF-12, 4-(4-Ethoxyphenyl)-2-(N′-fluoren-9-ylidenehydrazino)-4-oxobut-2-enoic acid methyl ester], the “percent activity against Mycobacterium tuberculosis” value (“percent activity” below) in data set [1] turned out to be 81%. Also, in data set [2], the LD50 at 14 day is over 1500 mg/kg.
For the compound `CCOc1ccc(C(=O)CC(O)(NN=C2c3ccccc3-c3ccccc32)C(=O)OC)cc1` (centres unmarked) [OF-13, 4-(4-Ethoxyphenyl)-2-(N′-fluoren-9-ylidenehydrazino)-2-hydroxy-4-oxobutyric acid methyl ester], in data set [1], the “percent activity” value is reported as 88%. The compound further showed an LD50 at 14 day in data set [2] of over 1500 mg/kg. Besides, in data set [3], the Stability in solutions entry was “not stable in solutions”.
For `COC(=O)C(=CC(=O)C(C)(C)C)Nc1ccc(Br)cc1` [OF-15, 2-(4-Bromophenylamino)-5,5-dimethyl-4-oxohex-2-enoic acid methyl ester], in data set [1], the “percent activity” value came out at 98%. For the same compound, the LD50 at 14 day in data set [2] is over 1500 mg/kg.
On to `NNC(=O)c1ccncc1` [isoniazid, isonicotinic acid hydrazide], for which, in data set [4] (adults, acute ingestion), the “acute ingestion leading to mild toxicity” value is at least 1.5 g, the “ingestion that may be fatal” value is 6 to 10 g and the “ingestion usually fatal if not appropriately treated” value is listed as 15 g. Moreover, in data set [4] (man), the “LCLo (lowest published lethal concentration)” value is on record as 100 mg/kg.
